Reference: patent US20230391760A1, “HETEROCYCLIC GLP-1 AGONISTS” (Gasherbrum Bio, Inc., priority 2020, published 2023)

Target: GLP-1 Receptor (Homo sapiens, UniProt P43220)
Experiment: GLP-1R agonist cAMP stimulation assay (HEK293/GLP1R/CRE-LUC cells, cAMP dynamic 2 Kit)
Assay type: cell-based
Details: HEK293/CRE-Luc cell line stably expressing the GLP-1 Receptor, 30 min at 37° C.
Outline: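 cAMP measured by HTRF competition (d2-labelled cAMP with cryptate antibody, 1 h, room temperature, protected from light). Before that, GLP1R/CRE-Luc HEK293 cells (1000/well) were exposed for 30 min at 37 °C to half-log compound dilutions in DPBS containing IBMX 0.5 mM and BSA 0.1%.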

Sequence of GLP-1 Receptor (P43220 24-463, species assumed): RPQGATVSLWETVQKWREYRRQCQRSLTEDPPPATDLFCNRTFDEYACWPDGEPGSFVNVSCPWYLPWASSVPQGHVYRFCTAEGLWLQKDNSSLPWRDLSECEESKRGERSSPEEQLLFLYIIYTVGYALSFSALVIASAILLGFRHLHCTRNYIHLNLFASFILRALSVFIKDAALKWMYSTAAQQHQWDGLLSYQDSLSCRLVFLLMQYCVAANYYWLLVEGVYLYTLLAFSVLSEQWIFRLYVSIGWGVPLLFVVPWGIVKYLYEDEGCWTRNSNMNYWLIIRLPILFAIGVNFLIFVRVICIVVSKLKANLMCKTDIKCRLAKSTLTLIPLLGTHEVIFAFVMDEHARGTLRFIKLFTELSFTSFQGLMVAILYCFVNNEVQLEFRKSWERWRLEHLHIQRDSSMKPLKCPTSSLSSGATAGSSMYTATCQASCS

| Compound | EC50 [nM] |
| --- | --- |
| Cc1nnc(-c2ccc3c(c2)nc(CN2CCC(c4cccc5c4OC(C)(c4ccc(Cl)cn4)O5)CC2)n3CC2(C#N)CC2)[nH]1 (stereo not drawn) [Compound 414, 1-{[2-({4-[2-(5-chloropyridin-2-yl)-2-methyl-2H-1,3-benzodioxol-4-yl]piperidin-1-yl}methyl)-5-(5-methyl-4H-1,2,4-triazol-3-yl)-1H-1,3-benzodiazol-1-yl]methyl}cyclopropane-1-carbonitrile] | 0.055 |
| CC1(c2ccc(Cl)cn2)Oc2cccc(C3=CCN(Cc4nc5cc(-c6nnc(C7CC7)[nH]6)cnc5n4C[C@@H]4CCO4)CC3)c2O1 (stereo partly drawn) [Compound 416a, 5-chloro-2-[4-(1-{[6-(5-cyclopropyl-4H-1,2,4-triazol-3-yl)-3-{[(2S)-oxetan-2-yl]methyl}-3H-imidazo[4,5-b]pyridin-2-yl]methyl}-1,2,3,6-tetrahydropyridin-4-yl)-2-methyl-2H-1,3-benzodioxol-2-yl]pyridine] | 14 |
| CO[C@H](C)Cn1c(CN2CCC(c3cccc4c3O[C@@](C)(c3ccc(Cl)cc3F)O4)CC2)nc2cc(-c3noc(=O)[nH]3)ncc21 [Compound 419a, 3-[2-({4-[(2S)-2-(4-chloro-2-fluorophenyl)-2-methyl-2H-1,3-benzodioxol-4-yl]piperidin-1-yl}methyl)-3-[(2R)-2-methoxypropyl]-3H-imidazo[4,5-c]pyridin-6-yl]-4,5-dihydro-1,2,4-oxadiazol-5-one] | 0.072 |
| CO[C@@H](C)Cn1c(CN2CCC(c3cccc4c3O[C@@](C)(c3ccc(Cl)cc3F)O4)CC2)nc2cc(-c3noc(=O)[nH]3)ncc21 [Compound 421a, 3-[2-({4-[(2S)-2-(4-chloro-2-fluorophenyl)-2-methyl-2H-1,3-benzodioxol-4-yl]piperidin-1-yl}methyl)-3-[(2S)-2-methoxypropyl]-3H-imidazo[4,5-c]pyridin-6-yl]-4,5-dihydro-1,2,4-oxadiazol-5-one] | 0.34 |
| O=c1[nH]c(-c2cc3nc(CN4CCC(c5cccc6c5OC[C@@H](c5ccc(Cl)cc5)O6)CC4)n(C[C@@H]4CCO4)c3cn2)no1 [Compound 422a, 3-[2-({4-[(2R)-2-(4-chlorophenyl)-2,3-dihydro-1,4-benzodioxin-5-yl]piperidin-1-yl}methyl)-3-{[(2S)-oxetan-2-yl]methyl}-3H-imidazo[4,5-c]pyridin-6-yl]-4,5-dihydro-1,2,4-oxadiazol-5-one] | 0.17 |
| FC(F)(F)c1nnc(-c2cc3nc(CN4CCC(c5cccc6c5OC[C@@H](c5ccc(Cl)cc5)O6)CC4)n(C[C@@H]4CCO4)c3cn2)[nH]1 [Compound 423a, 4-[(2R)-2-(4-chlorophenyl)-2,3-dihydro-1,4-benzodioxin-5-yl]-1-[(3-{[(2S)-oxetan-2-yl]methyl}-6-[5-(trifluoromethyl)-4H-1,2,4-triazol-3-yl]-3H-imidazo[4,5-c]pyridin-2-yl)methyl]piperidine] | 0.13 |
| Cc1nnc(-c2cc3nc(CN4CCC(c5cccc6c5OC[C@@H](c5ccc(Cl)cc5)O6)CC4)n(C[C@@H]4CCO4)c3cn2)[nH]1 [Compound 424a, 4-[(2R)-2-(4-chlorophenyl)-2,3-dihydro-1,4-benzodioxin-5-yl]-1-{[6-(5-methyl-4H-1,2,4-triazol-3-yl)-3-{[(2S)-oxetan-2-yl]methyl}-3H-imidazo[4,5-c]pyridin-2-yl]methyl}piperidine] | 0.13 |
| CC1(c2ccc(Cl)cn2)Oc2cccc(C3CCN(Cc4nc5cc(-c6nnc(C(F)(F)F)[nH]6)ncc5n4C[C@@H]4CCCO4)CC3)c2O1 (stereo partly drawn) [Compound 425a, 5-chloro-2-(2-methyl-4-{1-[(3-{[(2S)-oxolan-2-yl]methyl}-6-[5-(trifluoromethyl)-4H-1,2,4-triazol-3-yl]-3H-imidazo[4,5-c]pyridin-2-yl)methyl]piperidin-4-yl}-2H-1,3-benzodioxol-2-yl)pyridine] | 0.13 |
| CO[C@H](C)Cn1c(CN2CCC(c3cccc4c3OC(C)(c3ccc(Cl)cn3)O4)CC2)nc2cc(-c3nnc(C(F)(F)F)[nH]3)ncc21 (stereo partly drawn) [Compound 428a, 5-chloro-2-{4-[1-({3-[(2R)-2-methoxypropyl]-6-[5-(trifluoromethyl)-4H-1,2,4-triazol-3-yl]-3H-imidazo[4,5-c]pyridin-2-yl}methyl)piperidin-4-yl]-2-methyl-2H-1,3-benzodioxol-2-yl}pyridine] | 0.36 |

Next, values leading:

| EC50 [nM] | Compound |
| --- | --- |
| 0.6 | CC1(c2ccc(Cl)cc2)Oc2cccc(C3=CCN(Cc4nc5cc(-c6nnc(C(F)(F)F)[nH]6)ccc5n4CC4(C#N)CC4)CC3)c2O1 (stereo not drawn) [Compound 413, 1-{[2-({4-[2-(4-chlorophenyl)-2-methyl-2H-1,3-benzodioxol-4-yl]-1,2,3,6-tetrahydropyridin-1-yl}methyl)-5-[5-(trifluoromethyl)-4H-1,2,4-triazol-3-yl]-1H-1,3-benzodiazol-1-yl]methyl}cyclopropane-1-carbonitrile] |
| 0.14 | CC1(c2ccc(Cl)cn2)Oc2cccc(C3CCN(Cc4nc5cc(-c6nnc(C(F)(F)F)[nH]6)ccc5n4CC4(C#N)CC4)CC3)c2O1 (stereo not drawn) [Compound 415, 1-{[2-({4-[2-(5-chloropyridin-2-yl)-2-methyl-2H-1,3-benzodioxol-4-yl]piperidin-1-yl}methyl)-5-[5-(trifluoromethyl)-4H-1,2,4-triazol-3-yl]-1H-1,3-benzodiazol-1-yl]methyl}cyclopropane-1-carbonitrile] |
| 0.0065 | C[C@]1(c2ccc(Cl)cc2F)Oc2cccc(C3CCN(Cc4nc5cc(-c6nnn[nH]6)ncc5n4C[C@@H]4CCO4)CC3)c2O1 [Compound 417a, 4-[(2S)-2-(4-chloro-2-fluorophenyl)-2-methyl-2H-1,3-benzodioxol-4-yl]-1-[(3-{[(2S)-oxetan-2-yl]methyl}-6-(1H-1,2,3,4-tetrazol-5-yl)-3H-imidazo[4,5-c]pyridin-2-yl)methyl]piperidine] |
| 0.095 | CO[C@H](C)Cn1c(CN2CCC(c3cccc4c3O[C@@](C)(c3ccc(Cl)cc3F)O4)CC2)nc2cc(-c3nnc(C(F)(F)F)[nH]3)ncc21 [Compound 418a, 4-[(2S)-2-(4-chloro-2-fluorophenyl)-2-methyl-2H-1,3-benzodioxol-4-yl]-1-({3-[(2R)-2-methoxypropyl]-6-[5-(trifluoromethyl)-4H-1,2,4-triazol-3-yl]-3H-imidazo[4,5-c]pyridin-2-yl}methyl)piperidine] |
| 0.21 | CO[C@@H](C)Cn1c(CN2CCC(c3cccc4c3O[C@@](C)(c3ccc(Cl)cc3F)O4)CC2)nc2cc(-c3nnc(C(F)(F)F)[nH]3)ncc21 [Compound 420a, 4-[(2S)-2-(4-chloro-2-fluorophenyl)-2-methyl-2H-1,3-benzodioxol-4-yl]-1-({3-[(2S)-2-methoxypropyl]-6-[5-(trifluoromethyl)-4H-1,2,4-triazol-3-yl]-3H-imidazo[4,5-c]pyridin-2-yl}methyl)piperidine] |
| 0.088 | C[C@]1(c2ccc(Cl)cc2F)Oc2cccc(C3CCN(Cc4nc5cc(-c6nnc(C(F)(F)F)[nH]6)ncc5n4C[C@@H]4CCCO4)CC3)c2O1 [Compound 426a, 4-[(2S)-2-(4-chloro-2-fluorophenyl)-2-methyl-2H-1,3-benzodioxol-4-yl]-1-[(3-{[(2S)-oxolan-2-yl]methyl}-6-[5-(trifluoromethyl)-4H-1,2,4-triazol-3-yl]-3H-imidazo[4,5-c]pyridin-2-yl)methyl]piperidine] |
| 0.76 | CO[C@H](C)Cn1c(CN2CCC(c3cccc4c3OC(C)(c3ccc(Cl)cn3)O4)CC2)nc2cc(-c3noc(=O)[nH]3)ncc21 (stereo partly drawn) [Compound 427a, 3-[2-({4-[2-(5-chloropyridin-2-yl)-2-methyl-2H-1,3-benzodioxol-4-yl]piperidin-1-yl}methyl)-3-[(2R)-2-methoxypropyl]-3H-imidazo[4,5-c]pyridin-6-yl]-4,5-dihydro-1,2,4-oxadiazol-5-one] |
| 0.24 | CO[C@H](C)Cn1c(CN2CCC(c3cccc4c3O[C@@](C)(c3ccc(Cl)cn3)O4)CC2)nc2cc(-c3nnn[nH]3)ncc21 [Compound 429a, 5-chloro-2-[(2S)-4-[1-({3-[(2R)-2-methoxypropyl]-6-(1H-1,2,3,4-tetrazol-5-yl)-3H-imidazo[4,5-c]pyridin-2-yl}methyl)piperidin-4-yl]-2-methyl-2H-1,3-benzodioxol-2-yl]pyridine] |
| 0.04 | C[C@]1(c2ccc(Cl)cn2)Oc2cccc(C3CCN(Cc4nc5cc(-c6noc(=O)[nH]6)ncc5n4C[C@@H]4CCO4)CC3)c2O1 [Compound 430a, 3-[2-({4-[(2S)-2-(5-chloropyridin-2-yl)-2-methyl-2H-1,3-benzodioxol-4-yl]piperidin-1-yl}methyl)-3-{[(2S)-oxetan-2-yl]methyl}-3H-imidazo[4,5-c]pyridin-6-yl]-4,5-dihydro-1,2,4-oxadiazol-5-one] |
| 0.11 | C[C@]1(c2ccc(Cl)cc2F)Oc2cccc(C3CCN(Cc4nc5cc(C(=O)O)nnc5n4C[C@@H]4CCO4)CC3)c2O1 [Compound 431a, 6-({4-[(2S)-2-(4-chloro-2-fluorophenyl)-2-methyl-2H-1,3-benzodioxol-4-yl]piperidin-1-yl}methyl)-7-{[(2S)-oxetan-2-yl]methyl}-7H-imidazo[4,5-c]pyridazine-3-carboxylic acid] |
| 6.9 | C[C@]1(c2ccc(Cl)cc2F)Oc2cccc(C3CCN(Cc4nc5cc(C(N)=O)nnc5n4C[C@@H]4CCO4)CC3)c2O1 [Compound 432a, 6-({4-[(2S)-2-(4-chloro-2-fluorophenyl)-2-methyl-2H-1,3-benzodioxol-4-yl]piperidin-1-yl}methyl)-7-{[(2S)-oxetan-2-yl]methyl}-7H-imidazo[4,5-c]pyridazine-3-carboxamide] |
| 0.013 | C[C@]1(c2ccc(C#N)cc2F)Oc2cccc(C3CCN(Cc4nc5cc(-c6noc(=O)[nH]6)ncc5n4C[C@@H]4CCO4)CC3)c2O1 [Compound 433a, 3-fluoro-4-[(2S)-2-methyl-4-{1-[(3-{[(2S)-oxetan-2-yl]methyl}-6-(5-oxo-4,5-dihydro-1,2,4-oxadiazol-3-yl)-3H-imidazo[4,5-c]pyridin-2-yl)methyl]piperidin-4-yl}-2H-1,3-benzodioxol-2-yl]benzonitrile] |
